Marks after values point to notes of the source that are not given here.
Experiments:
rats with testis removed = assay: Penile erection caused by stimulating electric current in rats with testes removed (Example 7); assay type: in vivo, wistar rats; conditions: for Latent period / Swelling time: stimulation 35 min after administration
Excerpt: Methods: Forty healthy adult male wistar rats were used in the study, with the body weight ranging from 230 g to 250 g. The rats were anesthetized with sodium pentobarbital, and their testes were squeezed into the scrotum. After sterilization, the scrotum was dissected with an operation knife. The testes and epididymis were taken out respectively and then ligated. The wound were sutured and 100,000 unit of penicillin was administrated to each rat for three consecutive days. After breeding for one week, the rats were used for the tests. The animals may be used repeatedly and the interval between any two of the tests was one week. […] Sildenafil at the dose of 50 mg/kg was used as the positive control. The control group is (1% sodium carboxymethyl cellulose). In 35 min after the administration, the penis of the rats was stimulated with SEN-3201 stimulator (NIHON KOHDEN, Japan), with the following parameters: the stimulating voltage of 10V, the time interval (T1) of 250 msec, the deferment time (T2) of 10 msec, the duration (T3) of 500 μsec, and the stimulation rank (n) of 25. At the same time, the latent period (sec) of the penile erection and the penile swelling time (min) were recorded with a three-channel stop-watch.

mice with testis removed = assay: Sexual function (back climbing) of testis-removed mice (Example 10); assay type: in vivo, KM mice; conditions: for Incidence: back climbing within 2 hours after administration; for Times of back climbing / Number of the animals who performed back climbing: within 2 hours after administration; for Number of the animals who performed back climbing: 10 male mice
Excerpt: Methods: Forty healthy KM male mice with the body weight ranging from 28-32 g and forty healthy KM female mice with body weight ranging from 24-28 g were used. Each male mouse was anesthetized with sodium pentobarbital, and the testes were squeezed into the scrotum. After sterilization, the scrotum was dissected with an operating knife. The testes and epididymis were respectively taken out, and then ligated. The wound were sutured and each of the mice was administrated with 100,000 units of penicillin for three consecutive days. After being bred for one week, the mice were used for the tests. The animals may be employed repeatedly and the interval between any two tests was 72 hours. To the mice, the following compounds were orally administered: compound (1), compound (2), compound (3), and compound (4), each at the dose of 80 mg/kg and 40 mg/kg, respectively. The positive control agent was Sildenafil, at the dose of 80 mg/kg. The control group was given with 1% of sodium carboxymethyl cellulose. At 30 min after the administration, the male mice who had taken the above agents were put into the cages of female mice, with the male-to-female rate of 1:1. There were three males and three females in each cage. The times of back climbing on the female mice performed by the male mice, and the percentage of occurrence were observed within 2 hours after the administration.

anesthetized dogs = assay: Blood pressure, heart rate and respiration of anesthetized dogs (Example 11); assay type: in vivo; conditions: oral 40 mg/kg; in 3 hours after administration
Description: Methods: eight healthy male dogs with the body weight ranging from 12-15 kg were used. The dogs were anesthetized with 30 mg/kg of sodium pentobarbital. The femoral artery was dissected and inserted with a blood pressure transducer to record the blood pressure. The limbs were pierced with electrodes for recording the electrocardiogram. The respiration belt was wrapped around their chest and the respiration rate was recorded. The apparatus used was RM-6000 Polygraph system (NIHON KOHDEN, Japan). The changes in the arterial blood pressure, the heart rate, and the respiration were observed after the test compound was introduced into the stomach of the anesthetized dogs via 14# catheter.

anesthetized rats = assay: Blood pressure and heart rate of anesthetized rats (Example 12); assay type: in vivo, wistar rats
Description: Forty male wistar rats with the body weight ranging from 220-240 g were used in the study. Pharmaceuticals: compound (2) and Sildenafil, which were ground and then suspended with 1% of sodium carboxymethyl cellulose. Apparatus: RM-6000 eight-graph system (NIHON KOHDEN, Japan). The doses for administration and the division of the groups: solvent control group (abbreviated as the control group), 20 mg/kg of compound (2), 40 mg/kg of compound (2), 80 mg/kg of compound (2), and 50 mg/kg of Sildenafil. The administration route is through dodecadactylon. Methods: the male wistar rats were taken out and anesthetized with 35 mg/kg of sodium pentobarbital by injecting into the abdominal cavity, on the basis of their body weight. The rats were fixed on the operation table and were performed with the dissection operation of right carotid artery. The catheter with an external diameter of 1 mm was inserted into the right carotid artery. The blood pressure was measured and the electrodes positioned on the skin of the four limbs were used to record the electrocardiogram limb lead II. The catheter with an external diameter of 2 mm was inserted into the dodecadactylon via incision of the epigastric region, for the administration of the pharmaceuticals. RM-6000 eight-graph system (NIHON KOHDEN, Japan) was employed to record. Observation time: the value before administration, the values at 15, 30, 60, 120 and 180 min after the administration.

[1] = Preliminary acute toxicity, Bliss method (Example 13); conditions: rat, in vivo, oral and intragastric administration, rats
Description: Experimental methods: the toxicity test was conducted by oral and intragastric administration of the pyrazolopyrimidinethione derivatives of the invention using the Bliss method.

[2] = 20 mg/kg through dodecadactylon, at 15 min after administration
[3] = 20 mg/kg through dodecadactylon, at 30 min after administration
[4] = 20 mg/kg through dodecadactylon, at 60 min after administration
[5] = 20 mg/kg through dodecadactylon, at 120 min after administration
[6] = 20 mg/kg through dodecadactylon, value before administration
[7] = 40 mg/kg through dodecadactylon, at 15 min after administration
[8] = 40 mg/kg through dodecadactylon, at 30 min after administration
[9] = 40 mg/kg through dodecadactylon, at 60 min after administration
[10] = 40 mg/kg through dodecadactylon, at 120 min after administration
[11] = 40 mg/kg through dodecadactylon, value before administration
[12] = 80 mg/kg through dodecadactylon, at 15 min after administration
[13] = 80 mg/kg through dodecadactylon, at 30 min after administration
[14] = 80 mg/kg through dodecadactylon, at 60 min after administration
[15] = 80 mg/kg through dodecadactylon, at 120 min after administration
[16] = 80 mg/kg through dodecadactylon, value before administration
[17] = 20, 40 and 80 mg/kg through dodecadactylon

For CCCc1nn(C)c2c(=S)[nH]c(-c3cc(S(=O)(=O)N4C[C@@H](C)N[C@@H](C)C4)ccc3OCC)nc12 [Compound (2), 5-[2-ethoxy-5-(cis-3,5-dimethylpiperazin-1-sulfonyl)phenyl]-1-methyl-3-n-propyl-1,6-dihydro-7H-pyrazolo[4,3-d]pyrimidin-7-thione], the “penile swelling time (in words)” value (rats with testis removed; compared with control) was “lengthened”, the “latent period of the penile erection (in words)” value (rats with testis removed; compared with control, P<0.001) was “evidently shortened” and the “penile swelling time compared with positive control sildenafil (in words)” value (rats with testis removed; compared with sildenafil 50 mg/kg) was “more evident”. The Latent period (rats with testis removed; oral 10 mg/kg) was 29.5 ± 4.2 s, the Swelling time (rats with testis removed; oral 10 mg/kg) was 1069.8 ± 621.5 s and the Latent period (rats with testis removed; oral 20 mg/kg) was 29.5 ± 4.2 s. For the same compound, the Swelling time (rats with testis removed; oral 20 mg/kg) was 1480.5 ± 469.7 s, the Latent period (rats with testis removed; oral 40 mg/kg) was 30.1 ± 3.9 s and the Swelling time (rats with testis removed; oral 40 mg/kg) was 2675.5 ± 769.2 s. The Incidence (mice with testis removed; oral 40 mg/kg) was 60%, the “Times of back climbing” value (mice with testis removed; oral 40 mg/kg, 40 mg/kg) was 11* and the “Number of the animals who performed back climbing” value (mice with testis removed; oral 40 mg/kg) was 6*. For the same compound, the “Times of back climbing” value (mice with testis removed; oral 40 mg/kg, listed as compound (2), 40 mg/kg) was 11, the Incidence (mice with testis removed; oral 80 mg/kg) was 80% and the “Times of back climbing” value (mice with testis removed; oral 80 mg/kg, 80 mg/kg) was 20**. For the same compound, the “Number of the animals who performed back climbing” value (mice with testis removed; oral 80 mg/kg) was 8**, the “Times of back climbing” value (mice with testis removed; oral 80 mg/kg, listed as compound (2), 80 mg/kg) was 20 and the “arterial blood pressure (systolic and diastolic), heart rate and respiration (frequency and depth), in words” value (anesthetized dogs) was “did not experience an evident change”. It also gave a Heart rate (anesthetized rats; [2]) of 440 ± 29.7 times/min, a Systolic pressure (anesthetized rats; [2]) of 132 ± 29.5 mmHg and a diastolic pressure (anesthetized rats; [2]) of 108 ± 29.7 mmHg. For the same compound, the Heart rate (anesthetized rats; [3]) was 440 ± 29.6 times/min, the Systolic pressure (anesthetized rats; [3]) was 134 ± 29.6 mmHg and the diastolic pressure (anesthetized rats; [3]) was 104 ± 29.6 mmHg. For the same compound, the Heart rate (anesthetized rats; [4]) was 436 ± 22.9 times/min, the Systolic pressure (anesthetized rats; [4]) was 128 ± 22.9 mmHg and the diastolic pressure (anesthetized rats; [4]) was 101 ± 22.9 mmHg. For the same compound, the Heart rate (anesthetized rats; [5]) was 428 ± 22.6 times/min, the Systolic pressure (anesthetized rats; [5]) was 127 ± 22.6 mmHg and the diastolic pressure (anesthetized rats; [5]) was 102 ± 22.6 mmHg. For the same compound, the Heart rate (anesthetized rats; 20 mg/kg through dodecadactylon, before administration) was 445 ± 25.1 times/min, the Systolic pressure (anesthetized rats; [6]) was 134 ± 7.2 mmHg and the diastolic pressure (anesthetized rats; [6]) was 109 ± 14.1 mmHg. The Heart rate (anesthetized rats; [7]) was 422 ± 29.7 times/min, the Systolic pressure (anesthetized rats; [7]) was 130 ± 29.7 mmHg and the diastolic pressure (anesthetized rats; [7]) was 109 ± 29.7 mmHg. It also gave a Heart rate (anesthetized rats; [8]) of 427 ± 29.6 times/min, a Systolic pressure (anesthetized rats; [8]) of 134 ± 29.6 mmHg and a diastolic pressure (anesthetized rats; [8]) of 109 ± 29.6 mmHg. The Heart rate (anesthetized rats; [9]) was 425 ± 22.9 times/min, the Systolic pressure (anesthetized rats; [9]) was 122 ± 22.9 mmHg and the diastolic pressure (anesthetized rats; [9]) was 109 ± 22.9 mmHg. For the same compound, the Heart rate (anesthetized rats; [10]) was 424 ± 22.6 times/min, the Systolic pressure (anesthetized rats; [10]) was 133 ± 22.6 mmHg and the diastolic pressure (anesthetized rats; [10]) was 112 ± 22.6 mmHg. It also gave a Heart rate (anesthetized rats; 40 mg/kg through dodecadactylon, before administration) of 429 ± 42.8 times/min, a Systolic pressure (anesthetized rats; [11]) of 129 ± 13.6 mmHg and a diastolic pressure (anesthetized rats; [11]) of 109 ± 14.4 mmHg. For the same compound, the Heart rate (anesthetized rats; [12]) was 439 ± 29.7 times/min, the Systolic pressure (anesthetized rats; [12]) was 121 ± 29.7 mmHg and the diastolic pressure (anesthetized rats; [12]) was 102 ± 29.7 mmHg. For the same compound, the Heart rate (anesthetized rats; [13]) was 442 ± 29.6 times/min, the Systolic pressure (anesthetized rats; [13]) was 123 ± 29.6 mmHg and the diastolic pressure (anesthetized rats; [13]) was 97 ± 29.6 mmHg. For the same compound, the Heart rate (anesthetized rats; [14]) was 436 ± 22.8 times/min, the Systolic pressure (anesthetized rats; [14]) was 121 ± 22.9 mmHg and the diastolic pressure (anesthetized rats; [14]) was 96 ± 22.9 mmHg. The Heart rate (anesthetized rats; [15]) was 438 ± 22.6 times/min, the Systolic pressure (anesthetized rats; [15]) was 119 ± 22.6 mmHg and the diastolic pressure (anesthetized rats; [15]) was 94 ± 22.6 mmHg. The Heart rate (anesthetized rats; 80 mg/kg through dodecadactylon, before administration) was 439 ± 22.6 times/min, the Systolic pressure (anesthetized rats; [16]) was 126 ± 12.1 mmHg and the diastolic pressure (anesthetized rats; [16]) was 102 ± 12.0 mmHg. For the same compound, the “effect on the heart rate (in words)” value (anesthetized rats; [17]) was “did not exhibit an evident effect”, the “effect on the systolic pressure and diastolic pressure (in words)” value (anesthetized rats; [17]) was “did not exhibit an evident effect” and the LD50 [1] was over 3000 mg/kg.
